Reference: ChEMBL document CHEMBL3991601, “The target landscape of clinical kinase drugs” (Science, 2017)
Active and inactive are the calls of the source. Rule as the data show it, for most assays here: actives have a measured Kd and inactives only a lower limit.

How the values were obtained:
[1] = biological target: Rho-associated protein kinase 1 (Homo sapiens, UniProt Q13464)
[2] = biological target: Dual specificity mitogen-activated protein kinase kinase 1 (Homo sapiens, UniProt Q02750)
[3] = biological target: T1, Tyrosine-protein kinase Tec (Homo sapiens, UniProt P42680)
T1 sequence (P42680 whole entry): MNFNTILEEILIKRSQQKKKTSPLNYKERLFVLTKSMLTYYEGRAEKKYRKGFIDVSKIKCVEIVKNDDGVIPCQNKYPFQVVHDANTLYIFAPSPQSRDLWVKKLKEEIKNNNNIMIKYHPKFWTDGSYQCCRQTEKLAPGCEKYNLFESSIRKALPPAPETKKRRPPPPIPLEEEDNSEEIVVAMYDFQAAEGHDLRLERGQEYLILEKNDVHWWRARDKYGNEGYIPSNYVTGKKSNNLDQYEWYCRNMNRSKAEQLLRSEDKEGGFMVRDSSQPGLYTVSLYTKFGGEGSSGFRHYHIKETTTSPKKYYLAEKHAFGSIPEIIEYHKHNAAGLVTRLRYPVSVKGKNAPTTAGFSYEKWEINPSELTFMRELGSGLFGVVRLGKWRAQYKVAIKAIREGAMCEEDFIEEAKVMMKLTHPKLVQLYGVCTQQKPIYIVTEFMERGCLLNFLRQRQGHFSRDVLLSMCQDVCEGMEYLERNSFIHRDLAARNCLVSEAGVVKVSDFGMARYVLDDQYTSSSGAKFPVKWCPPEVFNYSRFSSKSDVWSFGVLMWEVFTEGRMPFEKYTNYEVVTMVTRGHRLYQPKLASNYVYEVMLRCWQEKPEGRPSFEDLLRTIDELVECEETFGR

[4] = biological target: T2, Thyroid hormone receptor-associated protein 3 (Homo sapiens, UniProt Q9Y2W1)
T2 sequence (Q9Y2W1 whole entry): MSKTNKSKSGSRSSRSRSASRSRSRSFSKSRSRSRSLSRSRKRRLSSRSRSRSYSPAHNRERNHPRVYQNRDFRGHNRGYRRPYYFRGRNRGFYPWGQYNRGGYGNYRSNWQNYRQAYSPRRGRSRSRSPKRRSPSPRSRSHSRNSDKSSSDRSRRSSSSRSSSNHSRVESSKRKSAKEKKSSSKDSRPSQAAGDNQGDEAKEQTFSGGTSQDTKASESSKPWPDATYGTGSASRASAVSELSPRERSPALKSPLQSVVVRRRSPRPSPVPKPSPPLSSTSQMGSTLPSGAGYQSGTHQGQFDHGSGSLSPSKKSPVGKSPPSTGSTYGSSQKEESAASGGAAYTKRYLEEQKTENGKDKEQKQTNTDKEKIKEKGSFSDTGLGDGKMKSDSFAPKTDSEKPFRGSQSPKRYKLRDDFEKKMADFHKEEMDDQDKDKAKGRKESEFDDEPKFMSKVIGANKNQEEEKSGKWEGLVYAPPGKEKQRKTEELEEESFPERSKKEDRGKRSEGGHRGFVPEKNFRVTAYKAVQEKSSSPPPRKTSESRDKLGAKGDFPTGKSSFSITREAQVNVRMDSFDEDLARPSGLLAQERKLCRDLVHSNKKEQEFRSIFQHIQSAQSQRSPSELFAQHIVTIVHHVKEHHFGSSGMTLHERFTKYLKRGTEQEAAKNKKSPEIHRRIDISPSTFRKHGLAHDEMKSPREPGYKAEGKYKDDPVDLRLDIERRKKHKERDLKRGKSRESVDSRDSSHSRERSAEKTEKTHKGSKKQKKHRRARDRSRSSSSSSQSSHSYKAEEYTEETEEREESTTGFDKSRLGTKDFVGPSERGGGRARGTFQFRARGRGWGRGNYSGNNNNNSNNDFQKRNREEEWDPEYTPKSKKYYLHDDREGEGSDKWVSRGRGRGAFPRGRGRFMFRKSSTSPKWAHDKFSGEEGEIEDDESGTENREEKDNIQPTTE

[5] = biological target: T3, Isoleucine--tRNA ligase, mitochondrial (Homo sapiens, UniProt Q9NSE4)
T3 sequence (Q9NSE4 whole entry): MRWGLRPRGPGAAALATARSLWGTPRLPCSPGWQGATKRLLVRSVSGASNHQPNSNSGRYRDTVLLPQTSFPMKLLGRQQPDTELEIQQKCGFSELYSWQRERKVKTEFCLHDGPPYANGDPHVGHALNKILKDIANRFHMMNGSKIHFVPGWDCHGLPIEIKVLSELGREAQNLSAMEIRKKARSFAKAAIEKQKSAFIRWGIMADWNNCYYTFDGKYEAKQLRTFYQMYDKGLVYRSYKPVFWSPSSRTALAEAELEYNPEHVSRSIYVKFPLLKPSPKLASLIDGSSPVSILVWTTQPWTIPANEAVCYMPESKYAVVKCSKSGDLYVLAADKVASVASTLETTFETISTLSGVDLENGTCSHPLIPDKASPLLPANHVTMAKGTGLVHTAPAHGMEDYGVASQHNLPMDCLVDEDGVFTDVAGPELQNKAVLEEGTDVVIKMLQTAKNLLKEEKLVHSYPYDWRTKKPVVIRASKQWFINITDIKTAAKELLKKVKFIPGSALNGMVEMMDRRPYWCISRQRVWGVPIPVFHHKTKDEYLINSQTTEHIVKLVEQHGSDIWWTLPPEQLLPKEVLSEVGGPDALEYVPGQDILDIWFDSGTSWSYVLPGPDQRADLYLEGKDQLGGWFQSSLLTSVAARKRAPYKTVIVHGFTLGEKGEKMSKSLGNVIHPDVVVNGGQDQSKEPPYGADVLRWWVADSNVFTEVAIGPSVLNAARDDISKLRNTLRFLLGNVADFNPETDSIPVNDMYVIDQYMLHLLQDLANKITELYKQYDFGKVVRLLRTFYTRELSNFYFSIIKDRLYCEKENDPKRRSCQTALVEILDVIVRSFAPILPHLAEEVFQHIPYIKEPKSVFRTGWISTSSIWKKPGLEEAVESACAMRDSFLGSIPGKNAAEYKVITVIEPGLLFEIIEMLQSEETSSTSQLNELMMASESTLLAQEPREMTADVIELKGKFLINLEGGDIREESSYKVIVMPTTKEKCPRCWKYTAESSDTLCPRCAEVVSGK

[6] = biological target: Glycogen synthase kinase-3 beta (Homo sapiens, UniProt P49841)
Sequence of Glycogen synthase kinase-3 beta (P49841 whole entry): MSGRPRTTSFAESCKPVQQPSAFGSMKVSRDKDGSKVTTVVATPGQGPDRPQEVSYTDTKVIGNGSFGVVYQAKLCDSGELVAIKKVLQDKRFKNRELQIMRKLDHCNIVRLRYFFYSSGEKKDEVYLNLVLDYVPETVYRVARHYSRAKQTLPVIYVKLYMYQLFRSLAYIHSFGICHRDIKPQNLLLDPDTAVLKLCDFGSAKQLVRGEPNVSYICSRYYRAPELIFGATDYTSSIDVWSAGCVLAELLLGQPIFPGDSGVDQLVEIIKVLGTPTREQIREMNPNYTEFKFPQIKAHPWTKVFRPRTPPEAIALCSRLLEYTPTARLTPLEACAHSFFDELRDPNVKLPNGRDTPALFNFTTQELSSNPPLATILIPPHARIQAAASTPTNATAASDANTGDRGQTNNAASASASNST

[7] = biological target: G protein-coupled receptor kinase 6 (Homo sapiens, UniProt P43250)
Sequence of G protein-coupled receptor kinase 6 (P43250 whole entry): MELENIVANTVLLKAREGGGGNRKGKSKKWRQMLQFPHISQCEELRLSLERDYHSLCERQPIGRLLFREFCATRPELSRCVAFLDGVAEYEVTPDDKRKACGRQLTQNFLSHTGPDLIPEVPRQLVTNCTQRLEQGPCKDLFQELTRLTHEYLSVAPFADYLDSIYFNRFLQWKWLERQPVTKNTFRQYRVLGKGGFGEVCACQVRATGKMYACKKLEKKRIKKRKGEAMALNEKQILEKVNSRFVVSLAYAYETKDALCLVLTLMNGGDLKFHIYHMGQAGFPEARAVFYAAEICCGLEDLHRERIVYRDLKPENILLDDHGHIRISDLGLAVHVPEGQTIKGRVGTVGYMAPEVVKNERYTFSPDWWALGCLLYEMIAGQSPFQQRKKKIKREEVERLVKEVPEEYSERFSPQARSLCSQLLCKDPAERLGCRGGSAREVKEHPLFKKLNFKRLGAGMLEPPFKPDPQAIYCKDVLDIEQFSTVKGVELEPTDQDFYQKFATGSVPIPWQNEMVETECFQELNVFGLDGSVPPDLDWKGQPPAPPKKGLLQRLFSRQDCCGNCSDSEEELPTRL
Also: in the data inactive means no Kd found up to 30 µM.

Sequence of Dual specificity mitogen-activated protein kinase kinase 1 (Q02750 whole entry): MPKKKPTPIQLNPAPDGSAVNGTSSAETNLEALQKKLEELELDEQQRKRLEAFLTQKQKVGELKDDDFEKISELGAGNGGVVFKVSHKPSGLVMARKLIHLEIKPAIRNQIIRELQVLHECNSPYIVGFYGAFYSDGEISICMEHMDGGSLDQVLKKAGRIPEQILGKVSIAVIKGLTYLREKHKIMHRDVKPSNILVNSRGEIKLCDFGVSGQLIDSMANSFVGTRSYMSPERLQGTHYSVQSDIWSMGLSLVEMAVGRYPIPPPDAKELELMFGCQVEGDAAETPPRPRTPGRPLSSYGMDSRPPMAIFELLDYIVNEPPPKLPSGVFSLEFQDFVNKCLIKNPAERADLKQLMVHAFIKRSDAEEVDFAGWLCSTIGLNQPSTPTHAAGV
Sequence of Rho-associated protein kinase 1 (Q13464 whole entry): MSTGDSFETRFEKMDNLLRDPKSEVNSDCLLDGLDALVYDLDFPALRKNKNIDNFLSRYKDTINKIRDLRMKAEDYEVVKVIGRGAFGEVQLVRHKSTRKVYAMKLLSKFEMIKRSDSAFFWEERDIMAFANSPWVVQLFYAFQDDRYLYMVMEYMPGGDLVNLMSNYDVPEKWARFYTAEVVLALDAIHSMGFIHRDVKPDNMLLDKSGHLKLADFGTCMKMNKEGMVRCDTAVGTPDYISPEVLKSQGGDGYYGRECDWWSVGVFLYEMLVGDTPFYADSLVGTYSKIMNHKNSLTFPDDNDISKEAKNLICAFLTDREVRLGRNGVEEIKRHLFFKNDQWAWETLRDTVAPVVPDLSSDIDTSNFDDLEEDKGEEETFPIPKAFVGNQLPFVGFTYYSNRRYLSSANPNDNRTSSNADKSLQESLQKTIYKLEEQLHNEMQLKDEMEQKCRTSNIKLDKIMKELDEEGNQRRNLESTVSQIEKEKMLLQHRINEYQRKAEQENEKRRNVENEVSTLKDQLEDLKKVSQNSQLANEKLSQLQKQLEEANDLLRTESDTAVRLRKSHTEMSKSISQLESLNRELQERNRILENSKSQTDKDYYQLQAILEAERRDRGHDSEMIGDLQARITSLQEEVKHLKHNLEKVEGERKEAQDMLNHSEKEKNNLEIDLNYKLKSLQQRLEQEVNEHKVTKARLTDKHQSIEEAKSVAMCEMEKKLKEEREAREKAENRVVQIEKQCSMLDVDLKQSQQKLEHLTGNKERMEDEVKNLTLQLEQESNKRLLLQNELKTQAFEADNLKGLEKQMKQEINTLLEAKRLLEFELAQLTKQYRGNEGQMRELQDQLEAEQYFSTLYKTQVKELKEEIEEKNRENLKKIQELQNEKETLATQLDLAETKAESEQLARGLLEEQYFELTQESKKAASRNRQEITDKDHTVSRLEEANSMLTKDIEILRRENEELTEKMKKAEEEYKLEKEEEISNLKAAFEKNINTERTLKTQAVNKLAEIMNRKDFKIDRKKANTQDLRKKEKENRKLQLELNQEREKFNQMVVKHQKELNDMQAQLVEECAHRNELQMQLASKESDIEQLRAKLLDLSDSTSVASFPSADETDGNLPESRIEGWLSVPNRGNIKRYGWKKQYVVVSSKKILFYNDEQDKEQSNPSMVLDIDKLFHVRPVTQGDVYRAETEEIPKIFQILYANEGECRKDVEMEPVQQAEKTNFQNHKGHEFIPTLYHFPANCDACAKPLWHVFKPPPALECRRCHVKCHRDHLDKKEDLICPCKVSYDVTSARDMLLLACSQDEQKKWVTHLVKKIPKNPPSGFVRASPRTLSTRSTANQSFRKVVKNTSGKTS

| SMILES | Kd [1] | Kd [2] | Kd [3] | Kd [4] | Kd [5] | Kd [6] | Kd [7] |
| --- | --- | --- | --- | --- | --- | --- | --- |
| COc1cc2nccc(Oc3ccc(NC(=O)C4(C(=O)Nc5ccc(F)cc5)CC4)cc3)c2cc1OC [CABOZANTINIB] | > 30 µM (inactive) | > 30 µM (inactive) | > 30 µM (inactive) | > 30 µM (inactive) | > 30 µM (inactive) | > 30 µM (inactive) | – |
| COc1cc2ncnc3c2cc1OCCCCCN(C)Cc1ccc(Br)cc1N3 [JNJ-26483327] | > 30 µM (inactive) | > 30 µM (inactive) | > 30 µM (inactive) | > 30 µM (inactive) | > 30 µM (inactive) | > 30 µM (inactive) | – |
| CN(c1ncccc1CNc1nc(Nc2ccc3c(c2)CC(=O)N3)ncc1C(F)(F)F)S(C)(=O)=O [PF-00562271] | – | – | > 30 µM (inactive) | – | > 30 µM (inactive) | – | – |
| C=CCn1c(=O)c2cnc(Nc3ccc(N4CCN(C)CC4)cc3)nc2n1-c1cccc(C(C)(C)O)n1 [ADAVOSERTIB] | – | – | > 30 µM (inactive) | > 30 µM (inactive) | > 30 µM (inactive) | – | – |
| CNC(=O)c1cc(COc2nnc(Nc3ccc(Cl)cc3)c3ccoc23)ccn1 [TELATINIB] | – | > 30 µM (inactive) | > 30 µM (inactive) | – | – | > 30 µM (inactive) | > 30 µM (inactive) |
| O=C(NOC[C@H](O)CO)c1ccc(F)c(F)c1Nc1ccc(I)cc1F [MIRDAMETINIB] | > 30 µM (inactive) | – | > 30 µM (inactive) | > 30 µM (inactive) | – | > 30 µM (inactive) | > 30 µM (inactive) |
| N#CCNC(=O)c1ccc(-c2ccnc(Nc3ccc(N4CCOCC4)cc3)n2)cc1 [MOMELOTINIB] | 1.36 µM (active) | – | > 30 µM (inactive) | – | > 30 µM (inactive) | – | – |
| CC1(C)CNc2cc(NC(=O)c3cccnc3NCc3ccncc3)ccc21 [MOTESANIB] | – | – | – | – | – | – | > 30 µM (inactive) |
| Cc1cc(C(=O)Nc2cc(Oc3ccc4nc(NC(=O)C5CC5)cn4n3)ccc2C)n(C)n1 [TAK-593] | > 30 µM (inactive) | > 30 µM (inactive) | > 30 µM (inactive) | – | – | > 30 µM (inactive) | > 30 µM (inactive) |
| NC[C@@](O)(c1ccc(Cl)cc1)c1ccc(-c2cn[nH]c2)cc1 [AT-13148] | 0.027 µM (active) | > 30 µM (inactive) | > 30 µM (inactive) | > 30 µM (inactive) | > 30 µM (inactive) | > 30 µM (inactive) | – |
| COc1cc(Nc2ncc(F)c(Nc3ccc4c(n3)N(COP(=O)(O)O)C(=O)C(C)(C)O4)n2)cc(OC)c1OC [FOSTAMATINIB] | > 30 µM (inactive) | > 30 µM (inactive) | > 30 µM (inactive) | – | > 30 µM (inactive) | > 30 µM (inactive) | – |
| COCCN1CCN(Cc2ccc(-c3n[nH]c4c3C(=O)c3c(NC(=O)NN5CCOCC5)cccc3-4)cc2)CC1 [RGB-286638] | > 30 µM (inactive) | > 30 µM (inactive) | > 30 µM (inactive) | > 30 µM (inactive) | > 30 µM (inactive) | 0.008 µM (active) | – |
| C=CC(=O)Nc1cccc(Nc2nc(Nc3ccc(N4CCN(C(C)=O)CC4)cc3OC)ncc2C(F)(F)F)c1 [ROCILETINIB] | > 30 µM (inactive) | > 30 µM (inactive) | 0.288 µM (active) | – | > 30 µM (inactive) | > 30 µM (inactive) | – |
| CCOc1ccn(-c2ccc(F)cc2)c(=O)c1C(=O)Nc1ccc(Oc2ccnc(N)c2Cl)c(F)c1 [BMS-777607] | > 30 µM (inactive) | > 30 µM (inactive) | > 30 µM (inactive) | – | > 30 µM (inactive) | – | – |
| O[C@H]1CC[C@H](Nc2ncc3nc(Nc4c(F)cc(F)cc4F)n([C@H]4CCOC4)c3n2)CC1 [TANZISERTIB] | > 30 µM (inactive) | > 30 µM (inactive) | > 30 µM (inactive) | > 30 µM (inactive) | > 30 µM (inactive) | > 30 µM (inactive) | – |
| Cn1cnc2c(F)c(Nc3ccc(Br)cc3Cl)c(C(=O)NOCCO)cc21 [SELUMETINIB] | – | – | – | > 30 µM (inactive) | > 30 µM (inactive) | – | – |
| Cn1c(=O)n(-c2ccc(C(C)(C)C#N)cc2)c2c3cc(-c4cnc5ccccc5c4)ccc3ncc21 [DACTOLISIB] | – | – | > 30 µM (inactive) | > 30 µM (inactive) | > 30 µM (inactive) | – | – |
| FC(F)(F)c1ccc(CNc2ccc(Cc3c[nH]c4ncc(Cl)cc34)cn2)cn1 [PEXIDARTINIB] | > 30 µM (inactive) | > 30 µM (inactive) | > 30 µM (inactive) | – | – | > 30 µM (inactive) | > 30 µM (inactive) |
| COc1cc2c(N3CCN(C(=O)Nc4ccc(OC(C)C)cc4)CC3)ncnc2cc1OCCCN1CCCCC1 [TANDUTINIB] | – | – | – | > 30 µM (inactive) | – | – | > 30 µM (inactive) |
| O=S(=O)(c1cccc2cnccc12)N1CCCNCC1 [FASUDIL] | – | – | > 30 µM (inactive) | > 30 µM (inactive) | – | – | > 30 µM (inactive) |
| CCN(CCCOc1ccc2c(Nc3cc(CC(=O)Nc4cccc(F)c4)n[nH]3)ncnc2c1)CCOP(=O)(O)O [BARASERTIB] | – | – | > 30 µM (inactive) | > 30 µM (inactive) | > 30 µM (inactive) | – | – |
| CCN1CCN(Cc2ccc(Nc3ncc(F)c(-c4cc(F)c5nc(C)n(C(C)C)c5c4)n3)nc2)CC1 [ABEMACICLIB] | > 30 µM (inactive) | > 30 µM (inactive) | > 30 µM (inactive) | > 30 µM (inactive) | > 30 µM (inactive) | – | – |
| O=C(NC[C@H](O)CO)c1ccncc1Nc1ccc(I)cc1F [PIMASERTIB] | > 30 µM (inactive) | – | > 30 µM (inactive) | > 30 µM (inactive) | 0.011 µM | > 30 µM (inactive) | – |
| c1cc(OCCN2CCCCC2)cc(-c2n[nH]c3ccc(-c4nc[nH]n4)cc23)c1 [CC-401] | – | > 30 µM (inactive) | > 30 µM (inactive) | > 30 µM (inactive) | – | – | > 30 µM (inactive) |
| O=S(=O)(c1cccc2c(O)nccc12)N1CCCNCC1 [HYDROXYFASUDIL] | – | > 30 µM (inactive) | > 30 µM (inactive) | > 30 µM (inactive) | – | > 30 µM (inactive) | > 30 µM (inactive) |
| C[C@]1(O)C[C@@H](c2nc(-c3ccc4ccc(-c5ccccc5)nc4c3)c3c(N)nccn32)C1 [LINSITINIB] | – | – | > 30 µM (inactive) | > 30 µM (inactive) | – | – | > 30 µM (inactive) |
